Experimental findings from PMC12264794, “Homoleptic complexes of titanium(IV) fused with O^N^O Schiff base derivatives: design, BSA–DNA interaction, molecular docking, DFT and cytotoxicity” (RSC Advances, 2025) are described below.

The test system of assay [1] is HeLa cells. Description: ROS generation, DCFH-DA staining. The class given is cell-based, human. The following applies: IC50 doses, 48 hours. The method, then:
HeLa cells of density 5 × 10^4 were seeded in six-well plates with high glucose DMEM and kept overnight until cell confluency was attained. […] The cells were treated with 10 mM 20,70-dichlorodihydrofluorescein diacetate (DCHF-DA) dye after washing twice with PBS buffer. Later, cells were incubated at 37 °C in complete darkness for 30 minutes. Subsequently, an inverted fluorescent microscope (Olympus Confocal Laser Scanning Microscope Fluoview Fv3000) was used to assess the ROS level of the cells. […] The amount of intracellular ROS was expressed as the average fluorescence intensity.[71,72]
ROS have been proposed as potential mediators of oxidative stress-induced apoptosis caused by titanium(IV) complexes, and the electrophoresis experiment mentioned above supports this theory.

In assay [2] the test system is HEK-293 cells. The experiment in a line: MTT cytotoxicity assay, HEK-293. The class given is cell-based, human. The note with it: 48 h of drug exposure. The procedure: The in vitro cytotoxicity of the Ti(IV) complexes under investigation was investigated using MTT, a micro-titration colorimetric method. The in vitro cytotoxicity test of the Ti(IV) complexes was evaluated against the cervical cancer cell line (HeLa), human breast cancer cell line (MCF-7) and human kidney normal cell line (HEK-293).[65,66]
In the cytotoxicity assay, tetrazolium salt 3-[4,5-dimethylthiazol-2-yl]-2,5diphenyl tetrazolium bromide (MTT) was utilized to assess cell viability. […] A Bio-Rad xMARK™ multi-well plate reader was used to measure the absorbance of each well at 570 nm. Using eqn (2), the percentage viability, which represents the relative viability of the treated cells in comparison to the control cells, was calculated, and the IC50 values and standard deviation of the substances under investigation were calculated in triplicate.2 [drawing 2]
An MTT assay was used to examine the cytotoxic effectiveness of the produced Ti(IV) complexes. After 48 hours of incubation, the cytotoxicity of Ti-1-IS to Ti-6-IBr was evaluated against human cancer cell lines, such as breast carcinoma (MCF7) and cervical cancer (HeLa), as well as the non-cancerous human embryonic kidney (HEK) cell line, by using the widely used therapeutic drug, cis-platin, as a positive control by following the standard protocol.

Assay [3] concerns CT-DNA. The experiment in a line: UV-vis absorption titration with CT-DNA. The class given is binding, calf. The method, then: The UV-vis titration technique was employed to conduct DNA binding investigations of the newly synthesized Ti(IV)complexes. The binding interactions between Ti(IV) complexes and CT-DNA 5 mM (5 × 10^−5 M) produced in PBS buffer were assessed in a 5 mM phosphate buffer (PBS) with a pH of 7.4. The ratio of UV absorbance of CT-DNA at each position, 260 and 280 nm, was confirmed. The concentration of each nucleotide was calculated using the molar absorption coefficient (6600 m^−1) of CT-DNA at 260 nm. Additional dilutions were made in 5 mM PBS buffer solution, and stock solutions of metal complexes were prepared in DMSO. DNA binding experiments were performed with a fixed concentration of the complex (20 μM) and increasing concentrations of CT-DNA (0–80 μM) in sample solutions to detect the CT-DNA absorbance peak.[41,42]
UV-vis spectra typically show a shift in wavelength and a change in absorption spectra as a result of the interaction of the Ti(IV) complexes with DNA. […] Then, using eqn (4), the binding characteristics for the aforementioned complexes, including binding constant (Kb) and binding sites, were determined.4 [drawing 4] where εa, εf, and εb represent the apparent extinction coefficient of the complex, the extinction coefficient of the complex in its free form and the extinction coefficient of the complex when completely bound to DNA.

As usually defined, the IC50 is the midpoint of a concentration-inhibition curve. Higher therefore signals lower potency.

As to `COc1cccc(C=NN=C([O-])c2ccncc2)c1[O-].COc1cccc(C=NN=C([O-])c2ccncc2)c1[O-].[Ti+4]` [Ti-3-IO], the “ROS production compared to the control” value in assay [1] is “increased fluorescence”.

`[O-]C(=NN=Cc1c([O-])ccc2ccccc12)c1ccncc1.[O-]C(=NN=Cc1c([O-])ccc2ccccc12)c1ccncc1.[Ti+4]` [Ti-2-IN] had a half-inhibitory concentration (IC50) in assay [2] of more than 250 µM.

As to `[O-]C(=NN=Cc1cc(Cl)ccc1[O-])c1ccncc1.[O-]C(=NN=Cc1cc(Cl)ccc1[O-])c1ccncc1.[Ti+4]` [Ti-5-ICl], the “ROS production compared to the control” value in assay [1] is “increased fluorescence”. The 50% inhibitory concentration (IC50) in assay [2] was more than 250 µM.

Regarding `[O-]C(=NN=Cc1cc(F)ccc1[O-])c1ccncc1.[O-]C(=NN=Cc1cc(F)ccc1[O-])c1ccncc1.[Ti+4]` [Ti-4-IF], the “Binding constant with DNA” value in assay [3] came out at 297000 M⁻¹.
